The structures appear in SMILES notation. Read-outs that look alike come from different tables or passages of the source.

One assay concerns the target recombinant PfPP1 (Plasmodium falciparum, UniProt Q8ILV1). As to the kind of experiment: biochemical. It counts as biochemical.
The next assay has as its system PP2A. To be noted: read-out: characteristic IC50; cited from earlier work.
A further assay concerns PP1. To be noted: cited from earlier work.
Another assay concerns PP2B. To be noted: cited from earlier work.
Another assay concerns other phosphatases. To be noted: cited from earlier work.
[1] abbreviates: read-out: IC50 for inhibition of PfPP1.

Regarding `[F-].[Na+]` [NaF], the IC50 at recombinant PfPP1 (read-out: IC50 for inhibition of PfPP1, recombinant PfPP1, data not shown) is 2500 µM.
Regarding `C=C1[C@@H](O)[C@@H]2O[C@]3(CC[C@H](/C=C/[C@@H](C)[C@@H]4CC(C)=C[C@@]5(O[C@H](C[C@@](C)(O)C(=O)O)CC[C@H]5O)O4)O3)CC[C@H]2O[C@@H]1[C@@H](O)C[C@H](C)[C@H]1O[C@@]2(CCCCO2)CC[C@H]1C` [OA, okadaic acid], the IC50 at recombinant PfPP1 was 0.1 µM; in the assay on PP2A, 0.001 to 0.005 µM; in the assay on PP1 (read-out: characteristic IC50), 0.02 to 0.08 µM. Further, in the assay on PP2B, the “sensitivity of PP2B to toxin” value is recorded as “highly resistant”.
For `O=P(O)(O)O` [inorganic orthophosphate], the IC50 at recombinant PfPP1 (setting [1]) was 10000 µM.
On the same count and under the same terms, the value for `O=P(O)(O)OP(=O)(O)O` [pyrophosphate] was 90 µM.
Turning to `CO[C@H]([C@H](O)CC(=O)[C@@H](C)[C@@H](O)CC[C@@H](C)[C@@H]1O[C@]2(CC[C@@H](C)[C@H](CC[C@H](C)C(C)=O)O2)CC[C@@H]1C)[C@H](OC(=O)C[C@@H](O)C1=C(C)C(=O)OC1=O)C(C)C` [tautomycin], the IC50 at recombinant PfPP1 came out at 0.0008 µM. The “effect on PP1 versus PP2A” value in the assay on PP1 (PP1 and PP2A compared) is listed as “nearly equally”. In addition, in the assay with other phosphatases, the “inhibition of other phosphatases” value was “fails to inhibit”.

Values taken from publication PMC111503 (Malaria Journal, 2002).
